This note sets out measurements from patent US8124743B2, “Purification of a bivalently active antibody using a non-chromatographic method” (President and Fellows of Harvard College, priority 2006, dated 2012).

Experiment [1] deals with rat anti-2,4-dinitrophenyl IgG (IgG^DNP, clone LO-DNP-2). The experiment can be described thus: Monovalent dissociation constant of hapten for anti-2,4-DNP IgG, method not given. Type of experiment: binding. The note with it: read-out: monovalent Kd (Kd^affinity) of hapten for IgG^DNP.
Experiment [2] deals with anti-2,4-DNP IgG (clone LO-DNP-2). Nature of the experiment: SE-HPLC of formation and dissociation of cyclic IgG aggregates. The note with it: for dissociation of IgG aggregates by excess monovalent hapten: about 1 mM monovalent hapten, SE-HPLC. Type of experiment: biochemical, rat. How it is done:
We used size-exclusion chromatography (SE-HPLC) to follow the purification process. This analytical technique has the advantage that we can resolve monomeric, dimeric, trimeric, and tetrameric antibody aggregates on the column. It has the disadvantage that these aggregates must be kinetically stable (in the absence of competing monovalent hapten) over the time required to carry out a separation (retention time, tr˜15 min).
Validation of Size-Exclusion Chromatography (SE-HPLC) to Examine Aggregates of IgG. Size-exclusion chromatography (SE-HPLC) can resolve the cyclic aggregates of antibodies from each other and from monomeric IgG (FIG. 6). The commercially available purified IgG gave predominantly one peak by SE-HPLC (FIG. 6a) at a retention time (˜15.6 min) consistent with the size of monomeric IgG (˜150 kDa) based on a molecular weight calibration plot (FIG. 3). We formed aggregates in >90% conversion by incubating IgG (2 μM) with 5-10 equivalents of bi and trivalent molecules in chart 1 for 12 hours. […] These antibody aggregates dissociated rapidly (<1 min) in the presence of excess monovalent hapten (6) (1 μM anti-2,4-DNP; 1 μM 1; 1000 μM 6) (FIG. 6c).

The target in experiment [3] is IgG from clone (LO-DNP-2), anti-DNP. The experiment can be described thus: Fluorescence titration (tryptophan quenching) for the monovalent dissociation constant. Type of experiment: binding, rat. The note with it: read-out: monovalent dissociation constant (Kd^affinity). The procedure:
Determination of dissociation constant of antibody and 2,4-DNP. The binding of DNP derivatives to anti-DNP quenches the fluorescence of tryptophan residues of the antibody. We conducted a fluorescence titration to determine the monovalent dissociation constant (Kd^affinity) of the IgG from clone (LO-DNP-2) for Ac2DNP-Lys, and obtained a value of 0.40±0.08 nM.

Values joined by “and” are separate entries in the source; they are usually repeats but may differ in a detail not shown here. Equal entries are not always repeated. Where two headings read alike, the source gives them in different places.

2,4-dinitrophenyl [2,4-DNP]: the Kd (commonly the constant that tells how readily two partners part at equilibrium) in experiment [1] (listed as DNP) is 8 nM and ~8 nM.
For the compound 4-nitrophenyl [4-NP], in experiment [1], the Kd was 500 nM and ~500 nM.
In the case of `NCCCC[C@H](Nc1ccc([N+](=O)[O-])cc1[N+](=O)[O-])C(=O)O` [compound 6, 2,4-dinitrophenyl lysine], in experiment [2] (1 μM anti-2,4-DNP, 1 μM 1, 1000 μM 6), the “time for dissociation of antibody aggregates by excess monovalent hapten” value is given as below 1 min. Further, the “dissociation of IgG aggregates by excess monovalent hapten” value in experiment [2] was “completely dissociated”.
On to `O=[N+]([O-])c1ccc(OC2O[C@H](CO)[C@@H](O)[C@H](O)[C@H]2O)cc1` (stereo partly shown) [compound 7, 4-nitrophenylglucose], for which the Kd in experiment [1] was around 500 nM. In addition, the “dissociation of IgG aggregates by excess monovalent hapten” value in experiment [2] is recorded as “completely dissociated”.
Take Ac2DNP-Lys: the Kd in experiment [3] was determined as 0.4 ± 0.08 nM.
